Test results from patent publication US6737383B1, “Herbicidal oxadiazolidines” (priority 1999, dated 2004).

Key:
[1] = test system: bedstraw; test: Test B pre/postemergence bedstraw; format: in vivo, Galium aparine
Outline: (§1)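 Test chemicals in a non-phytotoxic solvent mixture with surfactant were sprayed preemergence onto planted seeds and postemergence onto plants 2 to 18 cm tall (1- to 4-leaf stage). After twelve to sixteen days in a greenhouse, injury was visually rated against untreated controls from 0 (no effect) to 10 (complete control).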

[2] = test system: blackgrass; test: Test B pre/postemergence blackgrass; format: in vivo, Alopecurus myosuroides
Outline: as §1

[3] = test system: surinam grass; test: Test B pre/postemergence surinam grass; format: in vivo, Brachiaria decumbens
Outline: as §1

[4] = test system: cocklebur; test: Test B pre/postemergence cocklebur; format: in vivo, Xanthium strumarium
Outline: as §1

[5] = test system: corn; test: Test B pre/postemergence corn; format: in vivo, Zea mays
Outline: as §1

[6] = test system: crabgrass; test: Test B pre/postemergence crabgrass; format: in vivo, Digitaria sanguinalis
Outline: as §1

[7] = test system: giant foxtail; test: Test B pre/postemergence giant foxtail; format: in vivo, Setaria faberii
Outline: as §1

[8] = test system: morningglory; test: Test B pre/postemergence morningglory; format: in vivo, Ipomoea hederacea
Outline: as §1

[9] = test system: pigweed; test: Test B pre/postemergence pigweed; format: in vivo, Amaranthus retroflexus
Outline: as §1

[10] = test system: rape; test: Test B pre/postemergence rape; format: in vivo, Brassica napus
Outline: as §1

[11] = test system: soybean; test: Test B pre/postemergence soybean; format: in vivo, Glycine max
Outline: as §1

[12] = test system: sugar beet; test: Test B pre/postemergence sugar beet; format: in vivo, Beta vulgaris
Outline: as §1

[13] = test system: velvetleaf; test: Test B pre/postemergence velvetleaf; format: in vivo, Abutilon theophrasti
Outline: as §1

[14] = test system: wheat; test: Test B pre/postemergence wheat; format: in vivo, Triticum aestivum
Outline: as §1

[15] = test system: wild oat; test: Test B pre/postemergence wild oat; format: in vivo, Avena fatua
Outline: as §1

[16] = test system: purple nutsedge; test: Test B pre/postemergence purple nutsedge; format: in vivo, Cyperus rotundus
Outline: as §1

[17] = Postemergence, Rate 62 g/ha, scale 0 to 10, 0 is no effect, 10 is complete control
[18] = Postemergence, Rate 125 g/ha, scale of 0 to 10 where 0 is no effect and 10 is complete control
[19] = Postemergence, Rate 500 g/ha, scale 0 (no effect) to 10 (complete control)
[20] = Preemergence, Rate 125 g/ha, scale of 0 to 10 where 0 is no effect and 10 is complete control
[21] = Preemergence, Rate 250 g/ha, scale 0 (no effect) to 10 (complete control)
[22] = Rate 62 g/ha, Preemergence, scale 0 to 10
[23] = Rate 250 g/ha, Postemergence, scale 0 to 10, 0 is no effect, 10 is complete control
[24] = Rate 500 g/ha, Preemergence, scale 0 to 10 (0 no effect, 10 complete control)

CC(C)N(C(=O)n1oc(=O)n(CCN(C)C(=O)c2ccccc2)c1=O)c1ccc(F)cc1F [Compound 762]
Plant response rating, Bedstraw [1, 17]: 0
Bedstraw plant response rating [1, 18]: 0
Bedstraw plant response rating [1, 19]: 0
Plant response rating, Bedstraw [1, 20]: 0
Bedstraw plant response rating [1, 21]: 0
Bedstraw plant response rating [1, 22]: 0
Bedstraw plant response rating [1, 23]: 0
Bedstraw plant response rating [1, 24]: 0
Plant response rating, Blackgrass [2, 17]: 0
Blackgrass plant response rating [2, 18]: 0
Blackgrass plant response rating [2, 19]: 0
Plant response rating, Blackgrass [2, 20]: 0
Blackgrass plant response rating [2, 21]: 7
Blackgrass plant response rating [2, 22]: 0
Blackgrass plant response rating [2, 23]: 0
Blackgrass plant response rating [2, 24]: 9
Plant response rating, B. signalgrass [3, 17]: 0
B. signalgrass plant response rating [3, 18]: 0
B. signalgrass plant response rating ([3]; Preemergence, Rate 62 g/ha, scale of 0 to 10 where 0 is no effect and 10 is complete control): 0
Plant response rating, B. signalgrass [3, 20]: 0
B. signalgrass plant response rating [3, 21]: 6
B. signalgrass plant response rating [3, 23]: 2
B. signalgrass plant response rating ([3]; Rate 500 g/ha, Postemergence, scale 0 to 10, 0 is no effect, 10 is complete control): 3
B. signalgrass plant response rating [3, 24]: 9
Plant response rating, Cocklebur [4, 17]: 0
Cocklebur plant response rating [4, 18]: 0
Cocklebur plant response rating [4, 19]: 0
Plant response rating, Cocklebur [4, 20]: 0
Cocklebur plant response rating [4, 21]: 0
Cocklebur plant response rating [4, 22]: 0
Cocklebur plant response rating [4, 23]: 0
Cocklebur plant response rating [4, 24]: 0
Plant response rating, Corn [5, 17]: 0
Corn plant response rating [5, 18]: 0
Corn plant response rating [5, 19]: 2
Plant response rating, Corn [5, 20]: 0
Corn plant response rating [5, 21]: 0
Corn plant response rating [5, 22]: 0
Corn plant response rating [5, 23]: 2
Corn plant response rating [5, 24]: 0
Plant response rating, Crabgrass [6, 17]: 0
Crabgrass plant response rating [6, 18]: 0
Crabgrass plant response rating [6, 19]: 8
Plant response rating, Crabgrass [6, 20]: 4
Crabgrass plant response rating [6, 21]: 4
Crabgrass plant response rating [6, 23]: 3
Crabgrass plant response rating [6, 24]: 0
Giant foxtail plant response rating [7, 18]: 0
Plant response rating, Giant foxtail [7, 20]: 10
Giant foxtail plant response rating [7, 21]: 9
Giant foxtail plant response rating [7, 22]: 5
Giant foxtail plant response rating [7, 23]: 8
Giant foxtail plant response rating [7, 24]: 9
Plant response rating, Morningglory [8, 17]: 0
Morningglory plant response rating [8, 18]: 2
Morningglory plant response rating [8, 19]: 2
Plant response rating, Morningglory [8, 20]: 0
Morningglory plant response rating [8, 21]: 0
Morningglory plant response rating [8, 22]: 0
Morningglory plant response rating [8, 23]: 2
Morningglory plant response rating [8, 24]: 0
Plant response rating, Redroot pigweed [9, 17]: 0
Redroot pigweed plant response rating [9, 18]: 0
Redroot pigweed plant response rating [9, 19]: 6
Plant response rating, Redroot pigweed [9, 20]: 2
Redroot pigweed plant response rating [9, 21]: 3
Redroot pigweed plant response rating [9, 22]: 2
Redroot pigweed plant response rating [9, 23]: 6
Redroot pigweed plant response rating [9, 24]: 3
Plant response rating, Rape [10, 17]: 0
Rape plant response rating [10, 19]: 0
Plant response rating, Rape [10, 20]: 0
Rape plant response rating [10, 21]: 0
Rape plant response rating [10, 22]: 0
Rape plant response rating [10, 23]: 0
Rape plant response rating [10, 24]: 0
Plant response rating, Soybean [11, 17]: 2
Soybean plant response rating [11, 19]: 4
Plant response rating, Soybean [11, 20]: 0
Soybean plant response rating [11, 21]: 0
Soybean plant response rating [11, 22]: 0
Soybean plant response rating [11, 23]: 4
Soybean plant response rating [11, 24]: 0
Plant response rating, Sugarbeets [12, 17]: 0
Sugarbeets plant response rating [12, 19]: 6
Plant response rating, Sugarbeets [12, 20]: 0
Sugarbeets plant response rating [12, 21]: 4
Sugarbeets plant response rating [12, 22]: 0
Sugarbeets plant response rating [12, 23]: 6
Sugarbeets plant response rating [12, 24]: 4
Plant response rating, Velvetleaf [13, 17]: 0
Velvetleaf plant response rating [13, 19]: 3
Plant response rating, Velvetleaf [13, 20]: 0
Velvetleaf plant response rating [13, 21]: 0
Velvetleaf plant response rating [13, 22]: 0
Velvetleaf plant response rating [13, 23]: 3
Velvetleaf plant response rating [13, 24]: 5
Plant response rating, Wheat [14, 17]: 0
Wheat plant response rating [14, 19]: 0
Plant response rating, Wheat [14, 20]: 0
Wheat plant response rating [14, 21]: 0
Wheat plant response rating [14, 22]: 0
Wheat plant response rating [14, 23]: 0
Wheat plant response rating [14, 24]: 0
Plant response rating, Wild oats [15, 17]: 0
Wild oats plant response rating [15, 19]: 2
Plant response rating, Wild oats [15, 20]: 0
Wild oats plant response rating [15, 21]: 0
Wild oats plant response rating [15, 22]: 0
Wild oats plant response rating [15, 23]: 0
Wild oats plant response rating [15, 24]: 0
Plant response rating, Nutsedge [16, 17]: 0
Nutsedge plant response rating [16, 18]: 0
Nutsedge plant response rating [16, 19]: 3
Plant response rating, Nutsedge [16, 20]: 0
Nutsedge plant response rating [16, 21]: 0
Nutsedge plant response rating [16, 22]: 0
Nutsedge plant response rating [16, 23]: 0
Nutsedge plant response rating [16, 24]: 6
